Data on one compound can be found in US11813355B2, “Curcumin-loaded nanoemulsions, method of manufacture, and method of preventive treatment using the same” (UNIVERSIDAD DE CHILE, priority 2016, dated 2023).

Values after ≈ are worked out from the molar mass of the structure shown.

One data set relates to B16F10 cells. Put plainly: Matrigel invasion assay. The class given is cell-based, murine. The following applies: normalized to untreated control. The method, then: B16F10 cells (5×10^4) were seeded, allowed to grow for 24 h, and treated with CUR-NEM, CUR and controls. Then, serum-starved cells (2×10^5) were seeded (24 h) over 8 μm-porous inserts covered with Matrigel (Matrigel Invasion Chamber 8.0 lm; BD Biosciences Bedford, MA, USA). […] The membranes were mounted in Mowiol, and observed under a light microscope. At least 10 fields were evaluated (at 40× magnification) to determine the number of cells per field. The values obtained were normalized to those obtained for cells without treatment (control). Averages of values from three independent experiments are shown (mean±SEM). Statistically significant differences compared with the corresponding control group are indicated (**P<0.001; ****<0.0001). Metastasis is a complex process that is known to require migration and invasion of malignant cells.

Data set [1] deals with U937 (monoblastic leukemia). Particulars: U937, 48-hour exposure; read-out: CI50 (the source's name); cited from earlier work.
Data set [2] relates to Molt4 (human acute lymphoblastic leukemia). The following applies: Molt4, 48-hour exposure; read-out: CI50 (the source's name); cited from earlier work.
The subject of data set [3] is HL-60 (promyelocytic leukemia). The following applies: HL-60, 48-hour exposure; read-out: CI50 (the source's name); cited from earlier work.
A further data set concerns K562 (erythroleukemia). The following applies: K562, 48-hour exposure; read-out: CI50 (the source's name); cited from earlier work.
Data set [4] can be described thus: Persistence of curcumin fluorescence at the treatment site after tumor excision. The class given is in vivo, mice. The following applies: post-surgery.
Another data set relates to HeLa. Particulars: read-out: CI50 (the source's name); cited from earlier work.
Data set [5] concerns uterine cervical cancer cell line HeLa. In words: Viability assay (CellTiter 96 MTS), HeLa cells. Format: cell-based, human. How it is done:
To further determine the effect of the formulation on cell viability, the calorimetric method of tetrazolium salt reduction (CellTiter 96®) was used to establish a linear relationship between the number of metabolically active cells and the absorption intensity. […] 2500 HeLa cells were seeded per well, in a 96-well microplate, and the cells were incubated with 100 μL of Dulbecco's Modified Eagle Medium (DMEM) culture medium enriched with 10% fetal bovine serum (FBS), at 37° C. and 5% CO2. The day after seeding, the 100 μL of medium was removed, and it was replaced by 80 μL of clean culture medium. Then 20 μL of a treatment was applied, and the cells were incubated under the same temperature and CO2 conditions. 24 hours after the treatment was applied, the treatment was removed, the cells were subsequently washed three (3) times with phosphate-buffered saline (PBS), and 80 μL of medium without indicator was added to the cells and 20 μL of MTS. The cells were incubated for 1 hour, and the absorbance was measured at a wavelength of 490 nm in a microplate reader. […] Each assay was performed in triplicate. In addition, within each assay the same treatment was applied to a minimum of 5 wells.

In data set [6] the test system is Metastatic B16F10 murine melanoma cells. In words: Viability assay (MTS), B16F10 cells. The class given is cell-based. The following applies: Mus musculus, B16-F10, B16F10, 24 h treatment, read-out: IC50, decrease of proliferation/viability.
Procedure: Metastatic B16F10 murine melanoma cells were cultured in RPMI 1640 (Roswell Park Memorial Institute) supplemented with 10% FBS, 2 mM glutamine, and antibiotics (100 U/mL penicillin and 100 μg/mL streptomycin) at 37° C. in 5% CO2.
The cultured metastatic B16F10 murine melanoma cells and cultured human embryonic kidney cells (HEK293T) were seeded in 96-well plates at a density of 1×10^4 cells per well and incubated for 24 h in culture medium. […] 2% Sodium dodecyl sulfate (SDS) and a standard cell medium were used as positive and negative cell controls, respectively. Cell proliferation was evaluated by the MTS® assay, according to the manufacturer's (Promega, Madison, WI) instructions. Absorbance was evaluated at 490 nm removing any background absorbance (620 nm) in plate reader (Tecan Infinite 200 pro NanoQuant).
In the next data set the test system is B16F10 (murine melanoma). Particulars: B16F10, 48-hour exposure; read-out: CI50 (the source's name); cited from earlier work.

`COc1cc(C=CC(=O)CC(=O)C=Cc2ccc(O)c(OC)c2)ccc1O` [curcumin, 1,7-bis(4-hydroxy-3methoxyphenyl)-1,6-heptadien-3,5-dione] yielded a Reduction in invasiveness with B16F10 cells of 10 fold. The IC50 was around 30.1 µM in [1]; around 14.4 µM in [2]; around 15.7 µM in data set [3]; around 38.7 µM with K562 (erythroleukemia); 13.3 µM with HeLa; 61.8 ± 18.1 µM in [5] (Homo sapiens, 24-hour exposure, MTS, read-out: CI50 (the source's name)). Also, the IC50 was 34.8 ± 7.5 µg/mL (≈ 94.5 µM) in data set [6] and around 3.5 µM in the data set with B16F10 (murine melanoma). In addition, the “Curcumin fluorescence over basal levels, four (4) days after treatment” value in data set [4] is listed as “not detectable”. Further, the “Concentration of maximum effectiveness (cytotoxicity)” value in [5] (after 24-hour exposure) is 50 µM.
